“Also recorded” adds a separate entry of the source. Counter-ions that a name gives are not always drawn. Like-named read-outs stand apart in the source and are kept apart here.
How the values were obtained:
[1] = human, in vivo
[2] = Topical treatment of back pain in a patient with kyphosis; settings: applied to back in hyaluronic acid
[3] = Intratumour injection study, radioactivity in normal skin; type: in vivo, Fisher 344 rat; settings: injection into normal skin; 1 h, 6 h
Procedure: Animal: Fisher 344 rat, male 200-250g At the same time, injection into normal skin (left frank) was carried out similarly. […] At the same time, injection into normal skin (on the left frank) was carried out similarly.

[4] = tested on: Fisher Bladder Carcinoma tumor tissue; experiment: Intratumour injection study, radioactivity in tumor tissue; type: in vivo, Fisher 344 rat; settings: intratumor injection; 1 h, 6 h
Procedure: Animal: Fisher 344 rat, male 200-250g b. […] These drugs were administrated by intratumor injection. […] At the same time, injection into normal skin (on the left frank) was carried out similarly.

[5] = tested on: Fisher Bladder Carcinoma tumor tissue; experiment: Intravenous injection, radioactivity in tumor tissue; settings: mean ± S.E., FIG. 5 plots CPM
Procedure: (§1) Tumor (2 mm viable tumor fragment) was transplanted subcutaneously on the right frank by trocar
(§2) Treatment was started when tumor size is about 1.5 cm.(2 weeks after implantation.) . . . tumor weight: 1.0+0.3 g
(§3) The drug was administered Intravenously (through the penile vein)
(§4) Group A: 5-FU 20 mg/kg (3H-5-FU30 μCi)+saline
(§5) Tumor was surgically removed (and blood was collected) at *predeterminated time after drug administration. Tumor weight was measured (and blood was centrifuged to obtain a plasma sample.)
(§6) *15 min, 60 min, 3 hr, 4 hrs, . . . after drug administration . . . .
(§7) Radioactivity level in tumor tissue was counted, using a liquid scintillation counter.

[6] = Intravenous injection, radioactivity in liver; type: in vivo, Fisher 344 rat; set-up: unit not given beside the values; settings: mean ± S.E.
[7] = Chronic conditions - evaluations of patients treated with […] hyaluronic acid with 3% diclofenac acid (HD); type: in vivo, human (patients); settings: single patient
[8] = Toxicity of indomethacin solubilized in n-methyl glucamine with hyaluronic acid in animals; type: in vivo
Procedure: As a major amount of soluble indomethacin may be incorporated into the formulation, or composition, the indomethacin may be solubilized using n-methyl glucamine at a dilution of 5 mg/ml of n-methyl glucamine (NMG). This substance is then passed through a […] Milipore filter to produce sterility. […] The solution of indomethacin and NMG may be mixed with, for example, "LifeCore™" hyaluronic acid in dosage amounts discussed above. This produces an appropriate mixture and can be administered safely.

psoriasis = experiment: Topical treatment of a patient with psoriasis; type: in vivo, human (patient); settings: carried in hyaluronic acid
Procedure: In another patient, a drug (methotrexate) was carried in hyaluronic acid and applied topically to a patient with psoriasis.

[9] = tested on: Fisher Bladder Carcinoma tumor tissue; settings: rat, in vivo, iv
Procedure: as §1, §2, §3, §4, §5, §6, §7

[10] = monkey, in vivo; cited from earlier work

For O=C(c1ccccc1)c1ccc2n1CCC2C(=O)O (racemic) [Toradol™, (+/-) tromethamine salt of ketorolac], the Side effects [1] was “there were no side effects” and the Back pain [2] was “the back pain eased and disappeared for some time”.
With O=c1[nH]cc(F)c(=O)[nH]1 [Formulation 5-FU, 5-Fluoracil] the “Radioactivity clearance in normal tissue (skin) (in words)” value [3] was “radioactivity immediately disappeared from the tumor or the normal tissue”, the “Radioactivity retention in tumor tissue (in words)” value [4] was “radioactivity immediately disappeared from the tumor or the normal tissue” and the Radioactivity in tumor ([5]; 15 min after i.v.) was 2810 ± 165. The Radioactivity in tumor ([5]; 60 min after i.v.) was 1751 ± 149, the Radioactivity in tumor ([5]; 3 hrs after i.v.) was 1493 ± 227 and the Radioactivity in tumor ([5]; 5 hrs after i.v.) was 853 ± 129. It also gave a Radioactivity in liver ([6]; 15 min after i.v.) of 18680 ± 625, a Radioactivity in liver ([6]; 60 min after i.v.) of 5451 ± 841 and a Radioactivity in liver ([6]; 3 hrs after i.v.) of 2230 ± 449. For the same compound, the Radioactivity in liver ([6]; 5 hrs after i.v.) was 1129 ± 70.
For O=C(OCC(O)CO)c1ccccc1Nc1ccnc2c(C(F)(F)F)cccc12 (centres unmarked) [Idarac], the “Comments on outcome (in words)” value [7] was “poor response”.
For COc1ccc2c(c1)c(CC(=O)O)c(C)n2C(=O)c1ccc(Cl)cc1 [indomethacin], the Side effects [2] was “some side effects” and the “Multiple of the therapeutic dose that is non-toxic in animals” value [8] was 16 fold.
With CN(Cc1cnc2nc(N)nc(N)c2n1)c1ccc(C(=O)N[C@@H](CCC(=O)O)C(=O)O)cc1 [methotrexate] the Response of psoriasis (psoriasis) was “the psoriasis cleared”.
In the case of COc1ccc2cc([C@H](C)C(=O)O)ccc2c1 [naproxen], the Side effects [2] is reported as “some side effects”.
For CN1C(C(=O)Nc2ccccn2)=C(O)c2ccccc2S1(=O)=O [piroxicam], the “Comments on outcome (in words)” value [7] was “nega-; also recorded: poor relief”.
For hyaluronic acid, the “Radioactivity in tumor tissue (in words)” value [9] was “can enhance 5-FU uptake in tumor tissue”.
In the case of sodium hyaluronate, the “Cellular infiltration of the vitreous and anterior chamber, flare, haze, pathological changes” value [10] is listed as “no significant cellular infiltration of the vitreous and anterior chamber, no flare in the aqueous humour, no haze or flare in the vitreous, and no pathological changes”.
